The values below come from PubChem BioAssay AID330 (DTP/NCI, 2004).

For the experiment, the system named is P388 leukemia ip, CD2F1 mice, survival T/C. As to the kind of experiment: NCI In Vivo Anticancer Drug Screen. Data for tumor model P388 Leukemia (intraperitoneal) in CD2F1 (CDF1) mice. To be noted: endpoint: median survival time, higher = longer survival. In a few lines: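 Mice carrying the transplanted tumor received test compound or vehicle. Survival was recorded in each group, and the value is the treated-group measurement divided by that of the vehicle-treated control group.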

The mark [1] stands for this setting: dose: 50.0 mg/kg/injection, schedule: Q01DX009 (ip), vehicle: saline.
Setting [2] is: dose: 100.0 mg/kg/injection, schedule: Q01DX009 (ip), vehicle: saline.
The mark [3] stands for this setting: dose: 200.0 mg/kg/injection, schedule: Q01DX009 (ip), vehicle: saline.
[4] abbreviates: dose: 50.0 mg/kg/injection, schedule: Q01DX005 (ip), vehicle: saline with Tween-80.
Setting [5] is: dose: 100.0 mg/kg/injection, schedule: Q01DX005 (ip), vehicle: saline with Tween-80.
Where [6] appears, read: dose: 200.0 mg/kg/injection, schedule: Q01DX005 (ip), vehicle: saline with Tween-80.
[7] abbreviates: dose: 60.0 mg/kg/injection, schedule: Q01DX005 (ip), vehicle: saline with Tween-80.
[8] abbreviates: dose: 120.0 mg/kg/injection, schedule: Q01DX005 (ip), vehicle: saline with Tween-80.
Setting [9] is: dose: 240.0 mg/kg/injection, schedule: Q01DX005 (ip), vehicle: saline with Tween-80.
Setting [10] is: dose: 50.0 mg/kg/injection, schedule: Q01DX009 (ip), vehicle: saline with Tween-80.
Where [11] appears, read: dose: 100.0 mg/kg/injection, schedule: Q01DX009 (ip), vehicle: saline with Tween-80.
Setting [12] is: dose: 200.0 mg/kg/injection, schedule: Q01DX009 (ip), vehicle: saline with Tween-80.
Setting [13] is: dose: 25.0 mg/kg/injection, schedule: Q01DX009 (ip), vehicle: saline.
[14] abbreviates: dose: 60.0 mg/kg/injection, schedule: Q01DX005 (ip), vehicle: Klucel (hydroxypropylcellulose) (HPC).
Setting [15] is: dose: 120.0 mg/kg/injection, schedule: Q01DX005 (ip), vehicle: Klucel (hydroxypropylcellulose) (HPC).
[16] abbreviates: dose: 50.0 mg/kg/injection, schedule: Q01DX005 (ip), vehicle: saline.
Setting [17] is: dose: 100.0 mg/kg/injection, schedule: Q01DX005 (ip), vehicle: saline.
Setting [18] is: dose: 200.0 mg/kg/injection, schedule: Q01DX005 (ip), vehicle: saline.
Where [19] appears, read: dose: 25.0 mg/kg/injection, schedule: Q01DX005 (ip), vehicle: Klucel (hydroxypropylcellulose) (HPC).
The mark [20] stands for this setting: dose: 50.0 mg/kg/injection, schedule: Q01DX005 (ip), vehicle: Klucel (hydroxypropylcellulose) (HPC).
Setting [21] is: dose: 100.0 mg/kg/injection, schedule: Q01DX005 (ip), vehicle: Klucel (hydroxypropylcellulose) (HPC).
[22] abbreviates: dose: 200.0 mg/kg/injection, schedule: Q01DX005 (ip), vehicle: Klucel (hydroxypropylcellulose) (HPC).

Values joined by “and” are separate entries in the source; they are usually repeats but may differ in a detail not shown here. Equal entries are not always repeated. Toxic doses and inconclusive results are not listed. Bridge positions count the residues as written; N and C are the ends. Peptide text beside a SMILES is read from it. I, II: the chains in the order shown.

`CS(=O)(=O)OC[C@@H](O)[C@@H](O)COS(C)(=O)=O`: the T/C is 112 % of control under setting [1]; 110 % of control (dose: 100.0 mg/kg/injection, schedule: Q01DX009 (ip), vehicle: saline sonified); 99 % of control under setting [2]; 100 % of control (dose: 200.0 mg/kg/injection, schedule: Q01DX009 (ip), vehicle: saline sonified); 99 % of control under setting [3]; 100 % of control (dose: 400.0 mg/kg/injection, schedule: Q01DX009 (ip), vehicle: saline sonified).

Turning to `N#CN1C2CCC1CC(O)(c1ccccc1)C2` (stereo unspecified), the T/C is 104 % of control and 99 % of control under setting [4]; 102 % of control under setting [5]; 103 % of control under setting [6].

Regarding `CCOc1ccn(CC(=O)c2ccc(Cl)s2)c(=O)n1`, the T/C is, setting by setting: (dose: 100.0 mg/kg/injection, schedule: Q04DX003 (ip), vehicle: saline with Tween-80) 95 % of control; (dose: 200.0 mg/kg/injection, schedule: Q04DX003 (ip), vehicle: saline with Tween-80) 90 % of control; (dose: 400.0 mg/kg/injection, schedule: Q04DX003 (ip), vehicle: saline with Tween-80) 104 % of control.

As to `NC(=O)C1=CC2C3C=CC2(O)C(=O)OC3O1` (stereo unspecified), the T/C runs as follows: (dose: 7.5 mg/kg/injection, schedule: Q01DX005 (ip), vehicle: Klucel (hydroxypropylcellulose) (HPC)) 114 % of control and 119 % of control; (dose: 30.0 mg/kg/injection, schedule: Q01DX005 (ip), vehicle: Klucel (hydroxypropylcellulose) (HPC)) 158 % of control.

For `CC1(C)CCC23CCC4(C)C(CCC5C6(C)CCC(O)C(C)(C)C6CCC54C)C2C1OC3` (stereo unspecified), the T/C is, setting by setting: (dose: 50.0 mg/kg/injection, schedule: Q01DX009 (ip), vehicle: Klucel (hydroxypropylcellulose) (HPC)) 87 % of control; (dose: 100.0 mg/kg/injection, schedule: Q01DX009 (ip), vehicle: Klucel (hydroxypropylcellulose) (HPC)) 87 % of control; (dose: 200.0 mg/kg/injection, schedule: Q01DX009 (ip), vehicle: Klucel (hydroxypropylcellulose) (HPC)) 89 % of control.

Regarding `O=C(O)C12C3CCC(O3)C1(C(=O)O)C1CCC2O1` (stereo unspecified), the T/C is, setting by setting: under setting [7], 94 % of control; under setting [8], 90 % of control; under setting [9], 88 % of control.

For `CC(C)C1OC(=O)C=C1Sc1ccccc1` (stereo unspecified), the T/C under setting [4] was 100 % of control, the T/C under setting [5] was 99 % of control and the T/C under setting [6] is 114 % of control.

Take `N#CC1(C#N)C2C=CC(C2)N1OC(=O)c1ccc([N+](=O)[O-])cc1` (stereo unspecified): the T/C by setting is: under setting [10], 95 % of control; under setting [11], 92 % of control; under setting [12], 95 % of control.

Consider `COc1cc(O)c(C(c2ccccc2)c2c(O)c(C)c(O)c3c2OC(c2ccccc2)CC3=O)c(O)c1C` (stereo unspecified), for which the T/C (dose: 5.0 mg/kg/injection, schedule: Q01DX009 (ip), vehicle: Klucel (hydroxypropylcellulose) (HPC)) is 99 % of control; the T/C (dose: 10.0 mg/kg/injection, schedule: Q01DX009 (ip), vehicle: Klucel (hydroxypropylcellulose) (HPC)) is 99 % of control; the T/C (dose: 20.0 mg/kg/injection, schedule: Q01DX009 (ip), vehicle: Klucel (hydroxypropylcellulose) (HPC)) was 103 % of control; the T/C (dose: 40.0 mg/kg/injection, schedule: Q01DX009 (ip), vehicle: Klucel (hydroxypropylcellulose) (HPC)) was 99 % of control.

Regarding `CCOC(=O)C1CSCN1` (stereo unspecified), the T/C runs as follows: under setting [13], 97 % of control; under setting [1], 95 % of control; under setting [2], 100 % of control; under setting [3], 100 % of control.

As for `Fc1cccc(Cl)c1C(Nc1cnccn1)Nc1cnccn1`, the T/C is, setting by setting: under setting [14], 104 % of control; under setting [15], 119 % of control.

Consider `COc1cc(C2OCCO2)cc(OC)c1O`, for which the T/C under setting [1] is 97 % of control, the T/C under setting [2] is 105 % of control and the T/C under setting [3] is 101 % of control.

`N#Cc1ccc(NC(=O)Nc2cccc(C#N)c2)cc1`: the T/C is 100 % of control and 103 % of control (dose: 30.0 mg/kg/injection, schedule: Q01DX005 (ip), vehicle: saline with Tween-80); 89 % of control and 92 % of control and 94 % of control under setting [7]; 91 % of control and 94 % of control under setting [8]; 94 % of control under setting [9].

Turning to `Cc1cc2ccccc2c2nncn12`, the T/C runs as follows: under setting [10], 103 % of control; under setting [11], 103 % of control.

`CCCCn1[nH]nc(C(=O)OC)c1=O` (tested in a mixture with another compound): the T/C under setting [16] is 105 % of control, the T/C under setting [17] was 102 % of control and the T/C under setting [18] was 94 % of control.

`CCc1ncc(C(O)c2ccc(Cl)cc2)n1Cc1ccccc1` (stereo unspecified): the T/C under setting [14] is 93 % of control; the T/C under setting [15] was 93 % of control; the T/C (dose: 240.0 mg/kg/injection, schedule: Q01DX005 (ip), vehicle: Klucel (hydroxypropylcellulose) (HPC)) was 90 % of control.

As to `CC1=C[C@H]2C[C@]3(C)CC[C@H]4[C@H](C)C(=O)O[C@@H]4[C@@]13OO2`, the T/C was 107 % of control (dose: 0.75 mg/kg/injection, schedule: Q01DX005 (ip), vehicle: Klucel (hydroxypropylcellulose) (HPC)); 103 % of control (dose: 1.5 mg/kg/injection, schedule: Q01DX005 (ip), vehicle: Klucel (hydroxypropylcellulose) (HPC)); 90 % of control (dose: 3.0 mg/kg/injection, schedule: Q01DX005 (ip), vehicle: Klucel (hydroxypropylcellulose) (HPC)); 111 % of control (dose: 6.0 mg/kg/injection, schedule: Q01DX005 (ip), vehicle: Klucel (hydroxypropylcellulose) (HPC)).

As to `CCN(CC)Cc1cc(C)c(O)c(N=Nc2ccc3c4c(cccc24)-c2ccccc2-3)c1C`, the T/C is, setting by setting: under setting [10], 90 % of control; under setting [11], 93 % of control; under setting [12], 89 % of control.

In the case of `Nc1ccc2c(c1)C(=O)CCC2`, the T/C is 103 % of control under setting [10], 99 % of control under setting [11] and 100 % of control under setting [12].

With `NC(=NCc1ccncc1)N/N=C\c1ccnc2ccccc12`, the T/C by setting is: (dose: 60.0 mg/kg/injection, schedule: Q01DX005 (ip), vehicle: saline) 107 % of control; (dose: 120.0 mg/kg/injection, schedule: Q01DX005 (ip), vehicle: saline) 106 % of control.

In the case of `O=C(Nc1ccc(Cl)c(Cl)c1)Sc1ccc(O)cc1`, the T/C reads like this: (dose: 12.5 mg/kg/injection, schedule: Q01DX009 (ip), vehicle: saline) 91 % of control; under setting [13], 91 % of control; under setting [10], 96 % of control; under setting [1], 117 % of control; under setting [11], 91 % of control.

`CCOC(=O)C1=CNc2c(C#N)cnn2C1(C(=O)OCC)c1c[nH]c2ccccc12` (stereo unspecified): the T/C under setting [19] was 109 % of control, the T/C under setting [20] was 102 % of control, the T/C under setting [21] is 98 % of control and the T/C under setting [22] was 109 % of control.

As to `CCOC(=O)Cc1c[nH]c2ccc(N(CCO)CCO)cc12`, the T/C was 101 % of control under setting [19], 102 % of control under setting [20], 102 % of control under setting [21] and 98 % of control under setting [22].

In the case of `C=C(Cl)C(O)CNCCCC` (stereo unspecified), the T/C was 110 % of control under setting [4] and 110 % of control under setting [5].

Turning to `NC(CSSCC(N)C(=O)NC(Cc1ccc(O)cc1)C(=O)O)C(=O)NC(Cc1ccc(O)cc1)C(=O)O` (stereo not drawn) (I: H-Cys-Tyr-OH / II: H-Cys-Tyr-OH; disulfide I:1-II:1; configuration not given here), the T/C by setting is: under setting [16], 110 % of control; under setting [17], 111 % of control; under setting [18], 103 % of control.

For `CN(CC(=O)O)c1ccc(/C=C/c2ccnc3ccccc23)cc1`, the T/C was 100 % of control (dose: 50.0 mg/kg/injection, schedule: Q01DX001 (ip), vehicle: saline with Tween-80); 97 % of control (dose: 100.0 mg/kg/injection, schedule: Q01DX001 (ip), vehicle: saline with Tween-80); 103 % of control (dose: 200.0 mg/kg/injection, schedule: Q01DX001 (ip), vehicle: saline with Tween-80); 101 % of control (dose: 400.0 mg/kg/injection, schedule: Q01DX001 (ip), vehicle: saline with Tween-80).

In the case of `COc1cc2nncc(Cl)c2cc1OC`, under setting [20], the T/C was 101 % of control.
